Here are results for four molecules from patent US20250346606A1, “CAMPTOTHECIN COMPOUND, PREPARATION METHOD THEREFOR, AND APPLICATION THEREOF” (SICHUAN KELUN-BIOTECH BIOPHARMACEUTICAL CO., LTD., priority 2021, published 2025).

What all share (type): cell-based, Human
For assay [1], the system named is Hela cells. The assay can be described thus: Inhibitory effect of compounds on Hela cell proliferation. The following applies: read-out: IC50, inhibitory activity on Hela cell proliferation.
Assay [2] concerns SKOV-3 cells. Kind of assay: Inhibitory effect of compounds on SKOV-3 cell proliferation. The following applies: read-out: IC50, inhibitory activity on SKOV-3 cell proliferation.
In assay [3] the test system is A549 cells. Kind of assay: Inhibitory effect of compounds on A549 cell proliferation. The following applies: read-out: IC50, inhibitory activity on A549 cell proliferation.
Assay [4] relates to MDA-MB-231 cells. Kind of assay: Inhibitory effect of compounds on MDA-MB-231 cell proliferation. The following applies: read-out: IC50, inhibitory activity on MDA-MB-231 cell proliferation. The protocol:
(1) Cell plating: First, tumor cells MDA-MB-231 were cultured in corresponding medium, then digested with trypsin, centrifuged, resuspended, and counted, and the cells were adjusted to an appropriate concentration for plating.
(§1) Co-incubation of the compound of the present disclosure and tumor cells: after the cells adhered to the wall, the medium was removed, and the diluted bioactive molecule (the compound of the present disclosure) was added to the wells of the above plate, and incubated for 72 h.
(§2) In vitro cell viability detection: After the incubation, 50 μL of Cell Counting-Lite™ 2.0 reagent (Vazyme/Novazyme) was added to each well, shaken and mixed well in the dark, reacted for 10 minutes, and then the detection was carried out with a microplate reader (manufacturer: BMG, Model: PHERAStar-FS) for reading. The background RLU was obtained by using cell-free medium (with Cell Counting-Lite™), and the vehicle RLU was obtained by using cell-containing medium (with Cell Counting-Lite™). Cell inhibition rate=1−(sample RLU−background RLU)/(solvent RLU−background RLU)×100%. According to the four-parameter model fitting curve, the half maximal inhibitory concentration (IC50) of the compound was calculated, and the detection results were shown in Table 18.

In assay [5] the test system is HCC70 cells. The assay can be described thus: Inhibitory effect of compounds on HCC70 cell proliferation. The following applies: read-out: IC50, inhibitory activity on HCC70 cell proliferation. The protocol:
(1) Cell plating: First, tumor cells HCC70 were cultured in corresponding medium, then digested with trypsin, centrifuged, resuspended, and counted, and the cells were adjusted to an appropriate concentration for plating.
as §1
as §2, with “16.” for “18.”

Assay [6] has as its system HCC1806 cells. The assay can be described thus: Inhibitory effect of compounds on HCC1806 cell proliferation. In short, it runs like this:
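HCC1806 cells, once adhered, were exposed to diluted compound for 72 h. Viability was read by Cell Counting-Lite 2.0 luminescence, inhibition calculated against vehicle and cell-free background RLU, and IC50 fitted with a four-parameter model.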

Setting [7] is: Homo sapiens, HCC1806, 72 h, read-out: IC50, inhibitory activity on HCC1806 cell proliferation, HCC1806 human breast squamous carcinoma cells, 72 h incubation, Cell Counting-Lite 2.0.

Where two headings read alike, the source gives them in different places.

With `CC#C[C@@H](O)C(=O)N[C@H]1CCc2c(C)c(F)cc3nc4c(c1c23)Cn1c-4cc2c(c1=O)COC(=O)[C@]2(O)CC` [Example 1 (1-1-A), (R)—N-((1S,9S)-9-ethyl-5-fluoro-9-hydroxy-4-methyl-10,13-dioxo-2,3,9,10,13,15-hexahydro-1H,12H-benzo[de]pyrano[3′,4′:6,7]indolizino[1,2-b]quinolin-1-yl)-2-hydroxypent-3-yneamide], the IC50 was 0.00457 µM in assay [1] (Homo sapiens, HeLa, 72 h); 0.00781 µM in assay [2] (Homo sapiens, SK-OV-3, 72 h); 0.0666 µM in assay [3] (Homo sapiens, A549, 72 h); 0.364 µM in assay [4] (Homo sapiens, MDA-MB-231, 72 h); 0.225 µM in assay [5] (Homo sapiens, HCC70, 72 h).
Turning to `CC[C@@]1(O)C(=O)OCc2c1cc1n(c2=O)Cc2c-1nc1cc(Cl)c(C)c3c1c2[C@@H](NC(=O)[C@@H](O)C1CC1)CC3` [Example 5 (2-12-A), (2S)—N-((1S,9S)-5-chloro-9-ethyl-9-hydroxy-4-methyl-10,13-dioxo-2,3,9,10,13,15-hexahydro-1H,12H-benzo[de]pyrano[3′,4′:6,7]indolizino[1,2-b]quinolin-1-yl)-2-cyclopropyl-2-hydroxyacetamide], the IC50 in assay [1] (Homo sapiens, HeLa, 72 h) was found to be 0.0132 µM; in assay [2] (Homo sapiens, SK-OV-3, 72 h), 0.00685 µM; in assay [6] (setting [7]), 0.0014 µM; in assay [3] (Homo sapiens, A549, 72 h), 0.00696 µM; in assay [4] (Homo sapiens, MDA-MB-231, 72 h), 0.123 µM; in assay [5] (Homo sapiens, HCC70, 72 h), 0.171 µM.
Consider `CC[C@@]1(O)C(=O)OCc2c1cc1n(c2=O)Cc2c-1nc1cc(Cl)c(C)c3c1c2[C@H](NC(=O)[C@@H](O)C1CC1)CC3` [Example 5 (2-12-B), (2S)—N-((1R,9S)-5-chloro-9-ethyl-9-hydroxy-4-methyl-10,13-dioxo-2,3,9,10,13,15-hexahydro-1H,12H-benzo[de]pyrano[3′,4′:6,7]indolizino[1,2-b]quinolin-1-yl)-2-cyclopropyl-2-hydroxyacetamide], for which the IC50 in assay [1] (Homo sapiens, HeLa, 72 h) was 0.0167 µM; in assay [2] (Homo sapiens, SK-OV-3, 72 h), 0.00499 µM; in assay [6] (setting [7]) it was 0.00107 µM; in assay [3] (Homo sapiens, A549, 72 h), 0.00552 µM; in assay [5] (Homo sapiens, HCC70, 72 h) it was 0.176 µM.
“(2S)—N-((1S,9S)-5-chloro-9-ethyl-9-hydroxy-4-methyl-10,13-dioxo-2,3,9,10,13,15-hexahydro-1H,12H-benzo[de]pyrano[3′,4′:6,7]indolizino[1,2-b]quinolin-1-yl)-2-hydroxypropylamine [Example 4 (2-7-A)]”: the IC50 in assay [1] (Hela human cervical cancer cells, 72 h incubation, Cell Counting-Lite 2.0) was determined as 0.0138 µM; in assay [2] (SKOV-3 human ovarian cancer cells, 72 h incubation, Cell Counting-Lite 2.0), 0.00864 µM; in assay [6] (HCC1806 human breast squamous carcinoma cells, 72 h incubation, Cell Counting-Lite 2.0, read-out: IC50, inhibitory activity on HCC1806 cell proliferation) it was 0.00125 µM; in assay [3] (A549 human lung cancer cells, 72 h incubation, Cell Counting-Lite 2.0), 0.00697 µM; in assay [4] (MDA-MB-231 human breast cancer cells, 72 h incubation, Cell Counting-Lite 2.0) it was 0.123 µM; in assay [5] (HCC70 human breast cancer cells, 72 h incubation, Cell Counting-Lite 2.0) it was 0.151 µM.
